# Experimental data published in patent publication US20260355239A1, “COMBINATION OF A T CELL THERAPY AND CONTINUOUS OR INTERMITTENT DGK INHIBITOR DOSING” (Juno Therapeutics, Inc., priority 2022, published 2026).
# Tests used:
# [1] = test system: engineered T cells for the T cell therapy; experiment: In vivo anti-tumor effects and CAR T cell expansion/persistence with continuous DGKi dosing (summary of observations)
# Description: Without wishing to be limited by a specific mechanism of action, the results shown herein are consistent with a finding that the continuous presence of the DGKi following T cell therapy administration may prevent or reduce exhaustion in T cells of the T cell therapy, thereby improving T cell anti-tumor activity and proliferative capacity following administration.
# [2] = test system: HPV-expressing CaSki cells; experiment: Rescue treatment: cytolytic function of chronically stimulated eTCR T cells; type: cell-based, human; settings: 100 nM, 2.5:1 effector:target, 10 or 20 μg/mL anti-Vbeta chronic stimulation
# Description: Primary human CD4+ and CD8+ T cells were isolated from healthy donors by immunoaffinity-based methods. The isolated CD4+ and CD8+ T cells were combined and stimulated with an anti-CD3/anti-CD28 reagent, and then were transduced with a lentiviral vector encoding an anti-human papillomavirus 16 (anti-HPV16) eTCR. The nucleotide sequences encoding the beta chain and the alpha chain of the eTCR were separated by a sequence encoding a 2A ribosome skip element. Following transduction, the cells were cultured in media containing human serum and cytokines for 9-10 days prior to further assessment.
# To assess the effects of rescue treatment with Compound 17 on cytolytic function, eTCR cells were stimulated for six days using 10 μg/mL or 20 μg/mL plate-bound antibody against the TCR Vbeta chain in the absence of Compound 17.
# Following chronic stimulation, the eTCR-T cells were co-cultured with HPV-expressing CaSki cells at a 2.5:1 effector:target ratio in the presence of Compound 17 at 100 nM. As a control, chronically stimulated eTCR cells were co-cultured with CaSki cells in the absence of Compound 17. The CaSki cells were transduced with NucLight Red (NLR) and tumor cell number was monitored by Incucyte®.
# [3] = test system: A549.CD19 tumor spheroids; experiment: Rescue treatment: cytolytic activity of chronically stimulated CAR-T cells, 3D spheroids, A549.CD19; type: cell-based, human; settings: day 9
# Raji cells = experiment: Rescue treatment: cytolytic activity of chronically stimulated CAR-T cells, 2D, Raji; type: cell-based, human; settings: higher concentrations, 2D co-culture
# Experimental: (§1) Anti-CD19 CAR-expressing T cells, produced as described in Example 2, were chronically stimulated with plate-bound CAR-specific anti-idiotypic antibody for seven days as described in Example 3, but in the absence of Compound 17 during chronic stimulation. Instead, chronically stimulated CAR T cells were treated with Compound 17 during re-challenge with CD19-expressing tumor cells, after which cytolytic activity and cytokine production were assessed.
# The chronically stimulated CAR-T cells were incubated with various CD19-expressing lymphoma cells at a 2.5:1 effector:target ratio in the presence of DGKi (0-1000 nM). The tumor cells were labeled with NucLight Red (NLR) and tumor cell number was monitored by Incucyte®.
# anti-CD19 CAR-T cells = experiment: CAR-T cell proliferation during stimulation (Incucyte); type: cell-based, human; settings: 30 μg/mL plate-bound anti-idiotypic antibody, seven days
# Description: T cell compositions containing T cells expressing an exemplary anti-CD19 CAR were generated from leukapheresis samples from two healthy human adult donors by a process that included immunoaffinity-based selection of T cells by separately selecting CD4+ and CD8+ cells from the samples, resulting in two compositions enriched for CD4+ and CD8+ cells, respectively, per donor. Cells of the enriched CD4+ and CD8+ compositions were separately activated with anti-CD3/anti-CD28 beads and subjected to lentiviral transduction with a vector encoding an anti-CD19 CAR. […]
# Prior to use, the cryopreserved CD4+ and CD8+ CAR-engineered cell compositions were thawed and combined at approximately a 1:1 CD4:CD8 ratio for each donor to prepare a combined CD4+ CAR+ and CD8+ CAR+ T cell composition. The effects of treatment with Compound 17 at various concentrations (0.1 nM, 1 nM, 10 nM, 100 nM, or 1000 nM) added at day 0 during stimulation of the combined CAR-T cell composition with a plate-bound CAR-specific anti-idiotypic antibody (see, e.g., WO2018/023100) or during co-culture with CD19-expressing cells was then assessed.
# T cell proliferation during stimulation with 30 μg/mL of plate-bound anti-CAR anti-idiotypic antibody in the presence of Compound 17 was monitored for seven days using an Incucyte imaging system. […]
# anti-CD19 CAR T cells = experiment: In vivo expansion and/or persistence of CAR T cells from different donors, Raji-rFluc NSG mice (Example 8); settings: 0.3 mg/kg oral once daily Days 1-7, four donors, vs CAR T cells alone
# Experimental: The effects of Compound 17 administration on in vivo expansion and/or persistence of CAR T cells produced from different healthy donors were assessed.
# [4] = test system: anti-CD19 CAR-T cells with A549.CD19 and Granta-519 tumor spheroids; experiment: Rescue treatment: cytokine production of chronically stimulated CAR-T cells, 3D spheroids; type: cell-based, human; settings: 3D spheroid co-culture, five days
# Experimental: as §1
# Cytolytic activity also was assessed in CD19-expressing tumor spheroid cultures incubated with chronically stimulated CAR-T cells in the presence of DGKi. A549 CD19+ tumor spheroids or Granta-519 tumor spheroids were incubated with the anti-CD19 CAR-expressing T cells at an effector to target ratio of 1:2 for up to 14 days in the presence of DGKi (0-1000 nM). The tumor spheroids were engineered to express a red fluorescent dye to permit monitoring of tumor cell lysis by microscopy during the assay. Cytolytic activity was assessed by monitoring fluorescence over time, and the tumor volume (normalized to time zero) was measured as the number of red calibrated units (RCU)×μm^2 area. […]
# Supernatant was collected at day 5 from the above tumor spheroid cultures with chronically stimulated CAR-expressing T cells. Cytokine production was measured from the supernatant by meso scale discovery (MSD) analysis of the collected cell supernatants. […]
# Human venous whole blood = experiment: Human Whole Blood IFN-γ Assay; type: cell-based; settings: anti-CD3 + anti-CD28, 24 h, normalized to 3 μM reference compound, read-out: INFg Whole Blood Normalized-Agonist EC50
# Experimental: 9. Human Whole Blood IFN-γ Assay
# Human venous whole blood (22.5 μL per well), obtained from healthy donors, was pre-treated with compounds for one hour at 37 °C in a humidified 95% air/5% CO2 incubator. The blood was stimulated with 2.5 μL anti-human CD3 and anti-CD28 mAb at a final concentration of 1 μg/mL each for 24 hours at 37 °C. IFN-γ in the supernatants was measured using AlphLISA kit (Cat #AL217).
compound,measurement,setting,value
"CC[C@H]1CN([C@@H](CC)c2ccc(C(F)(F)F)cc2)[C@H](CC)CN1c1nc(=O)n(C)c2ccc(C#N)nc12 [Compound 17, 4-((2S,5R)-2,5-diethyl-4-((S)-1-(4-(trifluoromethyl)phenyl)propyl)piperazin-1-yl)-1-methyl-2-oxo-1,2-dihydropyrido[3,2-d]pyrimidine-6-carbonitrile]",in vivo anti-tumor effects,"[1]; continuous dosing, at least once daily for a plurality of consecutive days, with engineered T cells",improves in vivo anti-tumor effects
same,CAR T cell expansion and/or persistence,[1]; continuous presence of DGKi beginning on same day as T cell therapy,"can improve CAR T cell expansion and/or persistence, in particular that of CD4+ CAR T cells"
same,cytolytic function of chronically stimulated eTCR cells,[2],able to improve cytolytic function of chronically stimulated eTCR cells
same,cytolytic activity of CAR T cells against A549.CD19 spheroids,[3],improved the cytolytic activity of CAR T cells against both A549.CD19 and Granta-519 tumor spheroids
same,cytolytic activity of CAR T cells against Raji cells,Raji cells,not Raji cells
same,T cell proliferation (% confluence),anti-CD19 CAR-T cells,did not affect T cell proliferation
same,CAR T cell expansion and/or persistence,anti-CD19 CAR T cells,CAR T cell expansion and/or persistence was increased in all mice
same,"production of IFNγ, IL-2 and TNFα",[4],dose-dependent increase in production of all three cytokines
same,EC50,Human venous whole blood,20 nM
